Data from US7579356B2, “Thia-tetraazaacenaphthylene kinase inhibitors” (Janssen Pharmaceutica NV, priority 2005, dated 2009).

How the values were obtained:
EGFR = target: T1, EGFR (Homo sapiens, UniProt P00533); experiment: EGFR Kinase Assay; format: biochemical; conditions: for IC50: GST-EGFR, ATP 5 μM; for inhibition at 2 µM: test concentration of 2 μM, compounds without an IC50, read-out: EGFR inhibition in percent
T1 construct: The intracellular portion of EGFR started at nucleotide 2189 (corresponding to amino acid 667) and ended at the termination codon; made in house; host or cells: Sf9 insect cells (baculovirus)
Excerpt: The EGFR kinase used was a fusion of Glutathione-S-Transferase (GST) and a PCR amplified intracellular portion of EGFR (Accession Number NM_005228). The intracellular portion of EGFR started at nucleotide 2189 (corresponding to amino acid 667) and ended at the termination codon. The portion was PCR amplified with primers that added the lambda attB sequences to each end, recombined into an entry vector, then into a GST destination vector (as described in Gateway Technologies Manual by Invitrogen Corporation, Carlsbad, Calif.).
The destination vector was recombined in the DH10BAC strain of bacteria to produce a bacmid. The bacmid was transfected into Sf 9 cells and the supernatant containing the baculovirus was collected. The GSTEGFR protein was purified using large cultures of Sf 9 cells infected with stock virus. After an appropriate period of time, the cells were collected and lysed. The GSTEGFR was then purified from the lysate on Glutathione-Sepharose columns (as described by Amersham Biosciences, Buckinghamshire, United Kingdom).
The EGFR substrate was prepared by biotinylating polyGluTyr (128 mg) (Sigma, St. Louis, Mo.) in a 1×PBS buffer incubated together with a 12-fold molar excess of Sulfo-NHS-LC-Biotin on ice for at least 2 hrs. The free biotin was separated from the biotinylated polyGluTyr on a gel filtration column.
A mixture of a 10× kinase buffer (500 mM Tris at pH 8.0, 100 mM Magnesium Chloride and 1 mM Sodium Vanadate), DTT (1 mM final from 500 mM stock), ATP (5 μM final from 10 mM stock), biotinylated polyGluTyr (10 μg/μL stock), γ-^33P ATP (10 μCl/μL stock) and water was added to each well (for a total of 90 μL/well) of a Streptavidin Flashplate (Perkin Elmer, Wellesley, Mass.).
Test compound in 100% DMSO (2 μL) was added to the appropriate wells. Diluted GSTEGFR (1:300 dilution in 50 mM Tris at pH 8.0 and 0.1% bovine serum albumin) (10 μL) was added to the wells to initiate the reactions.
The plates were incubated at 30° C. for 1 hr with shaking. The reacted contents were removed and the plates were sequentially washed three times with a 1×PBS stop buffer (300 μL without Magnesium and Calcium) and 100 mM EDTA. After the final wash, the same stop buffer (200 μL) was added to the wells. The plates were then sealed and read on the TopCount scintillation counter.
Test compounds were assayed in triplicate at 16 concentrations at half-log dilutions starting at 200 uM. A maximum and minimum signal for the assay was determined on each plate. The percent inhibition of a test compound was calculated according to the formula: […]
For a series of test concentrations, the IC50 was derived by graphing percent inhibition against the log of the concentrations tested for a given compound. For those compounds without an IC50, the inhibition values in percent are shown at a test concentration of 2 μM. For compounds with multiple values, each value represents a separate assay result.

HER-2 = target: T2, HER-2 (Homo sapiens, UniProt P04626); experiment: HER-2 Kinase Assay; format: biochemical; conditions: for IC50: value in parentheses; for inhibition at 1 µM: test concentration of 1 μM
T2 construct: His6 with thrombin site (N); purchased Proqinase (Freiburg, Germany)
Protocol: The HER-2 kinase used was purified at Proqinase (Freiburg, Germany) from a construct that consisted of a fusion of GST (Glutathione-S-Transferase), HIS6-Thrombin and the nucleotides encoding amino acids 679 to 1255 of HER-2 (Accession Number M11730).
A mixture of a 10× kinase reaction buffer (600 mM Hepes at pH 7.5, 30 mM Magnesium Chloride, 0.03 mM Sodium Vanadate and 500 μg/mL PEG 20,000), DTT (1.2 mM final from a 10 mM stock), APT (1 μM from a 10 mM stock), biotinylated polyGluTyr (1.5 ng/μL final from stock of 1 μg/μL) prepared by Upstate Biotechnologies, Lake Placid, N.Y.), Manganese Chloride (3 mM final from a 1 M stock), γ-^33P-ATP (10 μCl/μL stock) and water (70 μL/well) was added to each well of a Streptavidin Flashplate (Cat. # SMP103, NEN, Boston, Mass.).
Test compound stock (1 μL) was added to the appropriate wells. Diluted GSTHER2 kinase (6.7 ng/μL diluted into 50 mM Tris-HCl at pH 8.0 and 0.1% bovine serum albumin) (30 μL) was added (total volume of 200 ng/well) to initiate the reactions.
The reaction plates were incubated at 30° C. for 1 hr. The reaction was terminated by aspirating the reaction mixture from the plate wells and washing the wells three times with a 1×PBS stop buffer (300 μL) and 100 mM EDTA. After the final wash, the same stop buffer (200 μL) was again added to the wells. The plates were then sealed and read on the TopCount scintillation counter.
The Her-2 inhibition values were derived according to the procedure described in Example 164 and are shown as percent in Table 4 at a test concentration of 1 μM. For those compounds with an IC50, the IC50 value in μM is shown in parentheses. For compounds with multiple test values, each value represents a separate assay result.

| Molecule | IC50 (EGFR) | IC50 (HER-2) | inhibition at 1 µM (HER-2) | inhibition at 2 µM (EGFR) |
| --- | --- | --- | --- | --- |
| 4-oxo-5-(4-phenoxy-phenyl)-4,5-dihydro-3H-1-thia-3,5,6,8-tetraaza-acenaphthylene-2-carboxylic acid (4-morpholin-4-ylmethyl-3-trifluoromethoxy-phenyl)-amide [Cpd 240] | 31 nM | 227 nM | – | – |
| O=C(Nc1ccc(CN2CCCC2)cc1)c1sc2ncnc3c2c1NC(=O)N3c1ccc(F)c(Cl)c1 [Cpd 7, 5-(3-chloro-4-fluoro-phenyl)-4-oxo-4,5-dihydro-3H-1-thia-3,5,6,8-tetraaza-acenaphthylene-2-carboxylic acid (4-pyrrolidin-1-ylmethyl-phenyl)-amide] | 7 nM | – | 69% | – |
| O=C(Nc1ccc(CN2CCOCC2)cc1)c1sc2ncnc3c2c1NC(=O)N3c1ccc(F)c(Cl)c1 [Cpd 13, 5-(3-chloro-4-fluoro-phenyl)-4-oxo-4,5-dihydro-3H-1-thia-3,5,6,8-tetraaza-acenaphthylene-2-carboxylic acid (4-morpholin-1-ylmethyl-phenyl)-amide] | 41 nM | 804 nM | 40% | – |
| CN1CCN(Cc2ccc(NC(=O)c3sc4ncnc5c4c3NC(=O)N5c3ccc(F)c(Cl)c3)cc2)CC1 [Cpd 14, 5-(3-chloro-4-fluoro-phenyl)-4-oxo-4,5-dihydro-3H-1-thia-3,5,6,8-tetraaza-acenaphthylene-2-carboxylic acid [4-(4-methyl-piperazin-1-ylmethyl)-phenyl]-amide] | 43 nM | – | -1% | – |
| C#Cc1cccc(N2C(=O)Nc3c(C(=O)Nc4ccc(CN5CCCC5)cc4)sc4ncnc2c34)c1 [Cpd 15, 5-(3-ethynyl-phenyl)-4-oxo-4,5-dihydro-3H-1-thia-3,5,6,8-tetraaza-acenaphthylene-2-carboxylic acid (4-pyrrolidin-1-ylmethyl-phenyl)-amide] | 26 nM | – | 21% | – |
| O=C(Nc1ccc(CN2CCCCC2)cc1)c1sc2ncnc3c2c1NC(=O)N3c1ccc(Cl)cc1Cl [Cpd 25, 5-(2,4-dichloro-phenyl)-4-oxo-4,5-dihydro-3H-1-thia-3,5,6,8-tetraaza-acenaphthylene-2-carboxylic acid (4-piperidin-1-ylmethyl-phenyl)-amide] | 168 nM | 768 nM | – | – |
| O=C(Nc1ccc(CN2CCOCC2)cc1)c1sc2ncnc3c2c1NC(=O)N3c1ccc(Cl)cc1Cl [Cpd 29, 5-(2,4-dichloro-phenyl)-4-oxo-4,5-dihydro-3H-1-thia-3,5,6,8-tetraaza-acenaphthylene-2-carboxylic acid (4-morpholin-4-ylmethyl-phenyl)-amide] | 873 nM | 884 nM | – | – |
| COc1ccc(N2C(=O)Nc3c(C(=O)Nc4ccc(CN5CCCCC5)cc4)sc4ncnc2c34)c(F)c1 [Cpd 66, 5-(2-fluoro-4-methoxy-phenyl)-4-oxo-4,5-dihydro-3H-1-thia-3,5,6,8-tetraaza-acenaphthylene-2-carboxylic acid (4-piperidin-1-ylmethyl-phenyl)-amide] | 524 nM | – | 11% | – |
| COc1ccc(N2C(=O)Nc3c(C(=O)Nc4ccc(OCC5CCCCO5)c(OC)c4)sc4ncnc2c34)c(F)c1 (centres unmarked) [Cpd 68, 5-(2-fluoro-4-methoxy-phenyl)-4-oxo-4,5-dihydro-3H-1-thia-3,5,6,8-tetraaza-acenaphthylene-2-carboxylic acid [3-methoxy-4-(tetrahydro-pyran-2-ylmethoxy)-phenyl]-amide] | 690 nM | – | -8% | – |
| COc1ccc(N2C(=O)Nc3c(C(=O)Nc4ccc(OC)c(OC)c4)sc4ncnc2c34)c(F)c1 [Cpd 69, 5-(2-fluoro-4-methoxy-phenyl)-4-oxo-4,5-dihydro-3H-1-thia-3,5,6,8-tetraaza-acenaphthylene-2-carboxylic acid (3,4-dimethoxy-phenyl)-amide] | 970 nM | – | -3% | – |
| COc1ccc(Cl)cc1N1C(=O)Nc2c(C(=O)Nc3ccc(CN4CCCCC4)cc3)sc3ncnc1c23 [Cpd 72, 5-(5-chloro-2-methoxy-phenyl)-4-oxo-4,5-dihydro-3H-1-thia-3,5,6,8-tetraaza-acenaphthylene-2-carboxylic acid (4-piperidin-1-ylmethyl-phenyl)-amide] | – | – | 4% | 57% |
| COc1cc(NC(=O)c2sc3ncnc4c3c2NC(=O)N4c2cc(Cl)ccc2OC)ccc1OCCN1CCCCC1 [Cpd 74, 5-(5-chloro-2-methoxy-phenyl)-4-oxo-4,5-dihydro-3H-1-thia-3,5,6,8-tetraaza-acenaphthylene-2-carboxylic acid [3-methoxy-4-(2-piperidin-1-yl-ethoxy)-phenyl]-amide] | – | – | 4% | 56% |
| COc1ccc(Cl)cc1N1C(=O)Nc2c(C(=O)Nc3ccc(CN(C)C[C@H]4CCCO4)cc3)sc3ncnc1c23 [Cpd 75, 5-(5-chloro-2-methoxy-phenyl)-4-oxo-4,5-dihydro-3H-1-thia-3,5,6,8-tetraaza-acenaphthylene-2-carboxylic acid [4-({methyl-[(2R)-tetrahydro-furan-2-ylmethyl]-amino}-methyl)-phenyl]-amide] | – | – | 2% | 46% |
| COc1cc(N2C(=O)Nc3c(C(=O)Nc4ccc(CN5CCCCC5)cc4)sc4ncnc2c34)ccc1Br [Cpd 81, 5-(4-bromo-3-methoxy-phenyl)-4-oxo-4,5-dihydro-3H-1-thia-3,5,6,8-tetraaza-acenaphthylene-2-carboxylic acid (4-piperidin-1-ylmethyl-phenyl)-amide] | 498 nM | 695 nM | – | – |
| COc1cc(N2C(=O)Nc3c(C(=O)Nc4ccc(CN5CCOCC5)cc4)sc4ncnc2c34)ccc1Br [Cpd 84, 5-(4-bromo-3-methoxy-phenyl)-4-oxo-4,5-dihydro-3H-1-thia-3,5,6,8-tetraaza-acenaphthylene-2-carboxylic acid (4-morpholin-4-ylmethyl-phenyl)-amide] | 776 nM | 518 nM | – | – |
| COc1cc(NC(=O)c2sc3ncnc4c3c2NC(=O)N4c2ccc(OCc3ccccn3)c(Cl)c2)ccc1OCCN1CCOCC1 [Cpd 86, 5-[3-chloro-4-(pyridin-2-ylmethoxy)-phenyl]-4-oxo-4,5-dihydro-3H-1-thia-3,5,6,8-tetraaza-acenaphthylene-2-carboxylic acid [3-methoxy-4-(2-morpholin-4-yl-ethoxy)-phenyl]-amide] | 83 nM | 350 nM | – | – |
| Cc1ccc(N2C(=O)Nc3c(C(=O)Nc4ccc(CN5CCCCC5)cc4)sc4ncnc2c34)cc1Br [Cpd 111, 5-(3-bromo-4-methyl-phenyl)-4-oxo-4,5-dihydro-3H-1-thia-3,5,6,8-tetraaza-acenaphthylene-2-carboxylic acid (4-piperidin-1-ylmethyl-phenyl)-amide] | 29 nM | 325 nM | – | – |
